The source made the active and inactive calls. No rule for the calls is given here.
Assay: EBV protein-peptide binding inhibitors, dose response, biochemical, fluorescence polarization (AID 1419)
Conditions: cell-free protein-peptide binding, 2 h; for fold change: measured here: P channel fold over control, at 54 µM

Structure (SMILES)	IC50	fold change
CCCNC(=O)Cn1c(=O)/c(=C\c2ccc(-c3cccc([N+](=O)[O-])c3)o2)s/c1=C\C(=O)C(C)(C)C	1.02 µM	8.62
O=c1ccc2cc3c4c(c2o1)CCCN4CCC3	< 0.42 µM	36.4
COc1ccc2c3c(cccc13)C(=O)N(O)C2=O	4.72 µM	2.23
CN(C)CCCN1C(=O)c2cccc3c(Br)ccc(c23)C1=O	7.44 µM	3.2
O=C1C(=Cc2ccc(Br)o2)C(=O)c2ccccc21	> 54 µM (inactive)	1.09
O=C1C(=Cc2cccn2-c2ccc(O)cc2)C(=O)c2ccccc21	1.94 µM	4.4
CC(C)(C)c1ccc(C(=O)Nc2cccc3c(=O)[nH][nH]c(=O)c23)cc1	5.97 µM	3.72
CC(=O)Nc1ccc2nc3c(=O)n(C)c(=O)n(C)c3nc2c1	1 µM	4.35
O=C1c2cccc3c([N+](=O)[O-])ccc(c23)C(=O)N1Cc1cccnc1	> 54 µM (inactive)	5.08
CN1CCc2cc3c(c4c2[C@H]1[C@H](O)c1ccccc1-4)OCO3	10.3 µM	2.19
CCOc1ccc(N=C2NC(=O)S/C2=C\c2ccc(N(C)C)cc2)cc1	5.8 µM	8.81
CCCCCn1c(N)c(-c2nc3ccccc3o2)c2c([N+](=O)[O-])nn(CC)c(=O)c21	> 54 µM (inactive)	0.747
Cc1ccc(S(=O)(=O)c2c(N)n(Cc3ccco3)c3nc4ccccc4nc23)cc1	> 54 µM (inactive)	1.41
Cc1nc(NC(=O)c2ccccc2)sc1-c1csc(Nc2ccc(C(=O)O)cc2)n1	2.31 µM	0.97
O=C(O)COc1ccc(-c2nccc(-c3cccs3)n2)cc1	> 54 µM (inactive)	1.03
CCCSCCCNC(=O)CC1Oc2ccccc2NC1=O (configuration not stated)	> 54 µM (inactive)	1.09
Cc1ccc(/C=C/C(=O)OCc2nc(N)nc(Nc3ccccc3C)n2)o1	> 54 µM (inactive)	0.917
COc1ccc(Cn2c3ccc(OC)cc3c3nc4ccccc4nc32)cc1	3.27 µM	3.38
CCN1/C(=C2\SC(=S)N(Cc3ccccc3)C2=O)Sc2ccccc21	> 54 µM (inactive)	2.96
CCOc1ccc(N/C=C/C(=O)c2ccc(OC)cc2)c([N+](=O)[O-])c1	4.13 µM	2.81
COCCOC(=O)c1sc(=S)n(CCOC)c1N	3.85 µM	2.45

Structure (SMILES)	IC50	fold change
COc1ccc(NC(=O)CSc2ccc3c4c(cccc24)C(=O)c2ccccc2-3)cc1	3.14 µM	11
COc1ccc(C(=O)NC2(C(F)(F)F)C(=O)N(Cc3ccco3)C3=C2C(=O)CC(C)(C)C3)cc1OC (configuration not stated)	> 54 µM (inactive)	1.14
CCN(CC)C(=O)COC(=O)c1cc(-c2ccco2)nc2ccccc12	28.4 µM	1.44
Cc1ccc(N=Nc2c(N)[nH]n3c(=O)cc(-c4ccccc4)nc23)cc1	> 54 µM (inactive)	1.02
Cc1nnc(NC(=O)CSc2cn(CCNC(=O)c3ccccc3)c3ccccc23)s1	> 54 µM (inactive)	1.05
N#Cc1cc(C(=O)c2ccccc2O)cn(-c2nccs2)c1=O	5.3 µM	14.2
Cc1ccccc1N1C(=O)NC(=O)/C(=C\c2ccc3c(c2)CCCN3Cc2ccccc2)C1=O	3.61 µM	10.3
COc1ccc(C2=CC(c3ccco3)n3ncnc3N2)cc1 (configuration not stated)	1.31 µM	12.4
C=CCN1C(=O)/C(=C\C=C2\N(C)c3ccccc3C2(C)C)SC1=S	5.07 µM	8.39
O=C(Nc1ccc(Cl)cc1)Nc1nnc(-c2ccncc2)s1	> 54 µM (inactive)	1.08
Cc1cccc2cc(/C=C3\N=C(c4ccccc4)OC3=O)c(N3CCOCC3)nc12	13.2 µM	12.5
Nc1c(S(=O)(=O)c2ccccc2)c2nc3ccccc3nc2n1Cc1ccco1	> 54 µM (inactive)	1.32
O=c1oc2ccccc2nc1/C=C(\O)c1ccc(Br)cc1	> 54 µM (inactive)	6.17
COC(=O)C(Nc1nccs1)(OC)C(F)(F)F (configuration not stated)	13.8 µM	2.09
Cc1c2cc(O)c(=O)cc-2oc2cc(O)c(O)cc12	1 µM	236
Cc1cc(-c2nc3c4c5c(sc4[nH]c(=O)n3n2)CCC5)c(C)o1	21.8 µM	1.2
CC1CCc2cccc3c2N1c1cc(C#N)c(C#N)cc1O3 (configuration not stated)	6.6 µM	8.38
O=C(N/N=C/c1cc(Cl)cc([N+](=O)[O-])c1O)NC12CC3CC(CC(C3)C1)C2	> 54 µM (inactive)	0.913
Cc1ccc(/C=C2\Sc3ccccc3C2=O)s1	> 54 µM (inactive)	1.61
COc1ccc(C(CC(=O)N2CCOCC2)c2c(OC)cc(OC)c3c(-c4ccccc4)cc(=O)oc23)cc1 (configuration not stated)	> 54 µM (inactive)	0.973
O=C(N/N=C/c1ccc(F)cc1)c1cc(-c2ccco2)nc2ccccc12	3.56 µM	0.96

Structure (SMILES)	IC50	fold change
O=C(COc1ccccc1Cl)c1ccc[nH]1	> 54 µM (inactive)	1.08
Cc1ccc(NC2=Nc3ccccc3N3C2=Nc2c(c(C)nn2-c2ccccc2)C3c2ccc(O)c(O)c2)cc1 (configuration not stated)	3.36 µM	2.84
CN1/C(=C/C=C(C#N)C#N)C(C)(C)c2ccccc21	> 54 µM (inactive)	1.64
N=c1oc2cc(O)ccc2cc1C(=O)Nc1nc2ccccc2s1	13 µM	2.65
Cc1ccc(C2C(C(=O)c3ccco3)=C(O)C(=O)N2c2nnc(C)s2)cc1 (configuration not stated)	> 54 µM (inactive)	1.75
CCC1=NN2C(=N)/C(=C\c3ccc(OCc4cc(=O)n5nc(CC)sc5n4)c(OC)c3)C(=O)N=C2S1	> 54 µM (inactive)	1.08
Cn1cc(Cl)c(C(=O)Nc2nc3ccc([N+](=O)[O-])cc3s2)n1	> 54 µM (inactive)	0.983
COc1ccc(N/C=C2\C(=O)CCc3c2oc2cc(Cl)c(O)c(Cl)c32)cc1	> 54 µM (inactive)	11.2
CCOC(=O)Cn1c2ccc(OC)cc2c2nc3ccccc3nc21	0.79 µM	6.57
O=C1NC(=O)N(c2ccc(F)cc2)C(=O)/C1=C/c1ccc2c(c1)CCCN2Cc1ccccc1	< 0.42 µM	38
CCn1c(SCc2ccc(C(=O)Nc3nccs3)cc2)nnc1-c1ccc(N)cc1	> 54 µM (inactive)	0.973
S=C(Nc1ccc2nc(-c3ccccn3)c(-c3ccccn3)nc2c1)N1CCCCC1	> 54 µM (inactive)	1.3
N#CC(c1nc2ccccc2nc1N1CCCC1)S(=O)(=O)c1ccccc1 (configuration not stated)	> 54 µM (inactive)	1.79
O=S(=O)(Nc1nc2ccccc2nc1-[n+]1cccc(N=C([O-])c2ccccc2Cl)c1)c1ccccc1	1.13 µM	2.79
COc1ncnc2c1N=C1CC(C)(C)CC(N)=C1S2	2.31 µM	6.34
O=C(CSc1ccsc1[N+](=O)[O-])Nc1cc(F)ccc1F	> 54 µM (inactive)	1.05
Cc1c(C(=O)NCCSCc2c(F)cccc2Cl)cnn1-c1ccc(Cl)cc1	> 54 µM (inactive)	1.06
CN1C(=O)/C(=C2\SC(=S)N(CCCCCC(=O)O)C2=O)c2ccccc21	52.1 µM (inactive)	1.07
O=C(Nc1nccs1)C(c1ccccc1)N1CCCC1 (configuration not stated)	> 54 µM (inactive)	1.04
COc1ccccc1NC(=O)/C(C#N)=C/c1cc([N+](=O)[O-])ccc1N1CCCC1	4.7 µM	60.1
O=C(O)/C=C/c1cn(-c2ccccc2)nc1-c1ccc(-c2ccc([N+](=O)[O-])cc2)o1	5.25 µM	2.34

Structure (SMILES)	IC50	fold change
CC(=O)Oc1ccc2c(c1)Oc1cc(OC(C)=O)ccc1C21OC(=O)c2ccccc21	< 0.42 µM	23.1
COc1ccc(/C=N/N=C2/CC(C)(C)Cc3n[nH]c(=O)cc32)cc1	4.15 µM	3.61
Cc1cc[n+](-c2[nH]c(=O)sc2/C=N/NC([S-])=Nc2ccccc2)cc1	> 54 µM (inactive)	1.42
Cn1cc(/C=C2\SC(=S)N(NC(=O)c3ccccc3)C2=O)c2ccccc21	> 54 µM (inactive)	5.3
CCOC(=O)c1[nH]cnc1N=Nc1c(O)ccc2ccccc12	7.35 µM	2.68
Oc1ccc2ccccc2c1N=Nc1ccc(F)cc1	> 54 µM (inactive)	1.24
COC(=O)c1cc2c(C)cc3ccc(C)cn3c-2c1C(=O)OC	9.57 µM	4.48
CCN(CC)c1ccc(N=Cc2c(O)n(CCc3ccc(OC)c(OC)c3)c(=O)[nH]c2=O)cc1	> 54 µM (inactive)	5.55
O=c1cc(C(F)(F)F)c2cc3c4c(c2o1)CCCN4CCC3	< 0.42 µM	57.5
CN1CCC2(CC1)C1CN(C)CC=C1C(C#N)=C(N)C2(C#N)C#N (configuration not stated)	2.49 µM	7.69
Cc1nn(-c2ccccc2)c2c1C(c1ccccc1)C(C#N)=C(N)O2 (configuration not stated)	> 54 µM (inactive)	1.01
CCCCN1C(=O)/C(=C/C=C2\Oc3ccccc3N2CC)SC1=S	5.36 µM	13.9
COC(=O)C[n+]1cccc2ccccc21	1.59 µM	14.8
CCc1ccc2nc3sc(C(=O)N4CCc5ccccc54)c(N)c3cc2c1	< 0.42 µM	16.6
C=CCn1c(=O)[nH]c2nc3cc(N=CN(C)C)c(C)cc3nc2c1=O	< 0.42 µM	40
C(=N\NC1=Nc2cccc3cccc1c23)/c1ccccc1	16.9 µM	11.4
Cc1cc(C)c[n+](-c2nc3ccccc3nc2[N-]S(=O)(=O)c2ccc(Br)s2)c1	7.26 µM	3.69
O=C1C2=C(SCCS2)C(=O)N1CCCO	2.57 µM	3.44
